Reference: patent US20110039793A1, “Application of ginsenoside Rb1 in preparing medicaments for treating dilated cardiomyopathy” (priority 2008, published 2011)

System: cTnT^R141W transgenic dilated cardiomyopathy mice model
Experiment: Left ventricular ultrastructure, electron microscopy
Format: in vivo
Details: long-term administration
Text: Effects on the left ventricular ultrastructure of the mice model with dilated cardiomyopathy after a long-term administration of ginsenoside Rb1 (electron microscopy)
Fresh myocardial tissues are fixed with 2.5% glutaraldehyde solution, then post-fixed by 1% osmic acid, embedded by Epon812 after the acetone gradient dehydration, wherein the embedded number is five Epon812 per case, ultra-thin sections are double stained by uranyl acetate and lead citrate, and observing by JEM1230 type projection electron microscope. The apparatuses are JEM1230 type projection electron microscope (Japanese Electronics Company), LEICA UCT type microtome (Germany Leica Company).

**Q.** `CC(C)=CCC[C@](C)(O[C@@H]1O[C@H](CO[C@@H]2O[C@H](CO)[C@@H](O)[C@H](O)[C@H]2O)[C@@H](O)[C@H](O)[C@H]1O)[C@H]1CC[C@]2(C)[C@@H]1[C@H](O)C[C@@H]1[C@@]3(C)CC[C@H](O[C@@H]4O[C@H](CO)[C@@H](O)[C@H](O)[C@H]4O[C@@H]4O[C@H](CO)[C@@H](O)[C@H](O)[C@H]4O)C(C)(C)[C@@H]3CC[C@]12C` [Rb1, ginsenoside Rb1] was tested. Which intercalated disc structure did it give?
**A.** clear

**Q.** And the mitochondrial structures?
**A.** most mitochondrial structures are normal

**Q.** And the myocytes structure?
**A.** clear structures

**Q.** What about the sarcoplasmic reticulum of the same compound?
**A.** slightly dilated
